Where a name gives a salt, the structure may show the parent alone.

The term melting point denotes the temperature of the solid-liquid transition. Consider `C[C@@H]1CN(C2CCN(C(=O)c3cccc4cccnc34)CC2)CCN1[C@@H](C)c1ccc(S(=O)(=O)c2ccc3c(c2)OCO3)nc1`, for which the melting point came out at 174 °C.

In turn, `Cc1cccc(C)c1C(=O)N1CCC(N2CCN([C@@H](C)c3ccc(S(=O)(=O)c4ccc5c(c4)OCO5)nc3)[C@H](C)C2)CC1` had a melting point of 165 °C.

As for `CNc1ccccc1C(=O)N1CCC(N2CCN(Cc3ccc(S(=O)(=O)c4cccc(C)c4)nc3)[C@H](C)C2)CC1` (as salt: HCl), the melting point was 144 to 148 °C (dec.).

As to `C[C@@H]1CN(C2CCN(C(=O)c3ccccc3N)CC2)CCN1[C@@H](C)c1ccc(S(=O)(=O)c2ccc3c(c2)OCO3)nc1`, the melting point lay in the range of 187 to 188 °C.

`C[C@@H]1CN(C2CCN(C(=O)c3cccc4c(F)cc(F)cc34)CC2)CCN1[C@@H](C)c1ccc(S(=O)(=O)c2ccc3c(c2)OCO3)nc1` came in with a melting point of 172 to 174 °C.

`C[C@@H]1CN(C2CCN(C(=O)c3cccc(Cl)c3N)CC2)CCN1[C@@H](C)c1ccc(S(=O)(=O)c2ccc3c(c2)OCO3)nc1` registered a melting point of 184 to 186 °C.

Values taken from patent US6451797B1, “Muscarinic antagonists” (priority 1998, dated 2002).
